Measured values published in patent publication US20140335050A1, “METHODS, COMPOSITIONS, AND KITS FOR THE TREATMENT OF CANCER” (The General Hospital Corporation, priority 2011, published 2014).

Tests used:
Format in all cases: cell-based, human
MU89 melanoma cells = experiment: Tumor cell/T cell co-culture IL-2 ELISA (Melan-A/MART-1 specific TCR Jurkat line J-TCR-M1 as responder); conditions: for Fold increase (IL-2 relative to untreated controls), hits from pilot screen: about 10 μM, 72 hours treatment, then 24 hours co-culture; for Outcome in the primary co-culture IL-2 screen (hit or not): ICCB Known Bioactives Library, 10 μM
Source text: The assay relies on the use of an antigen-specific responder T cell line. […] The chosen TCR reacts specifically to a Melan-A/MART-1 decapeptide (26[…]35) presented by HLA-A2, with appropriate triggering of T cell activation. We then used a lentiviral vector system for transduction of this specific TCR into the J.RT3-T3.5 T cell line, a Jurkat cell derivative which fails to express endogenous surface TCR through a mutation in its beta chain.
We evaluated several candidate melanoma cell lines for the ability to stimulate the J-TCR-M1 cell line. Levels of Melan-A/MART-1 (determined by intracellular staining and flow cytometry) and corresponding levels of induced IL-2 (determined by coculture with J-TCR-M1 and IL-2 ELISA) were tested for different melanoma cell lines.
The 480 compounds were tested in six parallel 96 well plates. The first two columns (16 wells) of each plate were used for standards (8 wells), untreated controls (4 wells), and positive controls (4 wells). The other ten columns (80 wells) were used for testing compounds in separate wells. A100 μl aliquot containing 5×10^4 MU89 cells was added to wells that contained 0.1 μl of each test drug diluted in 50 μl of RPMI media. The plates were incubated with drug for 72 hours at 37° C. in a humidified incubator with 5% CO2. After 72 hours, each well received 2.5×10^4J-TCR-M1 cells in 50 μl medium, and then incubated a further 24 hours. At the conclusion of the 24 hour co-culture period, each plate was centrifuged to pellet the cells and 100 μl supernatant fluid was collected from each well and plated in a parallel 96 well flat bottom well for IL-2 ELISA assay.
Melanoma cells were treated with hits from the primary screen for three days prior to counting and plating for the coculture assay (cells were washed and resuspended in fresh medium that no longer contained the treatment agents during the co-culture). A100 μl volume of 5×10^5 cells/ml tumor cells were mixed with 50 μl of […] T cells in a 96-well V-bottom plate and incubated overnight (16-24 hours). Plates were centrifuged to pellet the cells and 100 μl of supernatant fluid was removed from each well for cytokine assay. To assess antigen-specific T cell responses, a final concentration of 3.33 μg/ml Melan-A/MART-1 peptide (26[…]35 (A27L from wild type)) was added to the co-culture.
The protocol for evaluation of the cytokine IL-2 was performed using a the BD OptEAI kit, human IL-2 ELISA set from BD Biosciences (San Diego, Calif.) following the manufacturer's recommendations. The absorbance 450 nm was read in a BioRad 3550 plate reader. A standard curve using known concentrations of IL-2 (from 500 to 8 pg/ml) was included in each ELISA plate. IL-2 levels for experimental samples (pg/ml) were calculated from the standard curve.
100 μl of 5×10^5 tumor cells/ml were mixed with 50 μl of T cells (at 5×10^5 cells/ml) in a 96-well V-bottom plate and incubated overnight (16-24 hours). Plates were centrifuged to pellet the cells and 120 μl of supernatant fluid was removed from each well for cytokine assay. To assess antigen-specific T cell responses, 3.33 μg/ml Melan-A/MART-1 peptide was added to the co-culture.
The protocols for evaluation of either IL-2 or IFN-gamma were similar, following the manufacturer's recommendations. A standard curve using known concentrations of each cytokine was included in each ELISA experiment. ELISA plates were coated with capture antibody and then washed with 1×PBS 0.5% Tween-20. Wells were blocked with 1×PBS 1% FBS for 1 hour and rewashed.

MU89 melanoma cell line = experiment: Antibody staining and flow cytometry (intracellular Melan-A/MART-1, gp100, TRP-2; surface MHC Class I/II); conditions: MU89 cells
Procedure: (§1) Cells were fixed with 1% formaldehyde, permeabilized with 0.1% saponin, stained with monoclonal antibodies to melanocyte antigens. Antibodies were obtained with specificity for: MART-1 from Vector Labs (Burlingame, Calif.); gp100 HMB45 from DakoCytomation (Carpinteria, Calif.) and then visualized with goat anti-mouse FITC-conjugated secondary antibody from Invitrogen (Fredrick, Md.). The level of EGFP was determined by flow cytometry of unfixed cells that were washed and resuspended in 1×PBS.
(§2) Cells were plated at a density of 1×10^5 in 1 ml of medium in a 24-well plate and cultured for varying times as indicated in results. […] After incubation, cells were collected by trypsinization and then evaluated by flow cytometry.
(§3) Intracellular staining and flow cytometric analyses of cytoplasmic Melan-A/MART-1, and gp100 expression were performed as described previously. Cells were fixed with 1% formaldehyde, permeabilized with 0.1% saponin, stained with monoclonal antibodies to melanocyte antigens. Antibodies were obtained with specificity for: Melan-A/MART-1 from Vector Labs (Burlingame, Calif.); gp100/HMB45 from DakoCytomation (Carpinteria, Calif.) and then visualized with goat anti-mouse FITC-conjugated secondary antibody from Invitrogen (Frederick, Md.). The level of EGFP was determined by flow cytometry of unfixed cells washed and resuspended in 1×PBS. Surface staining of MHC Class I was carried out using the antibody W6/32 on cells harvested with Cell Stripper from MediaTech Inc. (Manassas, Va.) and carried out on ice.
(§4) Cell were seeded at 1×10^6 cells in a T25 flask with 10 ml of media for the 4 day IFN-beta pre-treatments. Cells were then harvested and plated in 24 well plate at 1×10^5 cells per well in 1 ml of media for 3 day treatments.
(§5) For surface staining of HLA Class I and II antigens, cells were harvested using CellStripper™ from Mediatech (Manassas, Va.). All staining steps were performed on ice. Following a first incubation with antibody to Class I (W6/32) or Class II (L243) for 30 minutes. Stained cells were washed twice with cold PBS and then stained with a goat anti-mouse FITC secondary antibody to allow for quantitative analysis by flow cytometry. For evaluation of cytoplasmic antigens, including Melan-A/MART-1 and gp100, cells were first fixed in paraformaldehyde and permeabilized with saponin as previously described. Staining for cytoplasmic antigens was carried out at room temperature (22° C.).

U2-OS osteosarcoma cells = experiment: Surface antibody staining and flow cytometry (MHC Class I/II); conditions: U2-OS cells; Table 20; single agent or simultaneous combination
Procedure: as §3, §4, §5

[1] = system: MCF-7 breast cancer cells; experiment: as above; conditions: MCF-7 cells; Table 20; single agent or simultaneous combination
Procedure: as §3, §4, §5

[2] = system: HeLa cervical carcinoma cells; experiment: as above; conditions: HeLa cells
Procedure: as §3, §4, §5

[3] = system: U-118 MG glioma cell line; experiment: Antibody staining and flow cytometry (intracellular gp100; surface MHC Class I/II); conditions: U118 cells; Table 20; single agent or simultaneous combination
Procedure: as §1, §2, §3, §4, §5

[4] = Table 20, single agent or simultaneous combination
[5] = Table 21, no pre-treatment, treatment as labelled
[6] = Table 21, pre-treatment PU-H71 (3 days), then treatment as labelled
[7] = Table 21, substance given as pre-treatment (3 days) only, no subsequent treatment

Compound: COc1c(C=O)c(O)cc2c1C(=O)c1ccccc1C2=O [Damnacanthal]
- Fold increase (IL-2 relative to untreated controls), hits from pilot screen (MU89 melanoma cells): 2.1 fold

Compound: O=C1CN(/N=C/c2ccc(-c3ccc([N+](=O)[O-])cc3)o2)C(O)=N1 [Dantrolene]
- Fold increase (IL-2 relative to untreated controls), hits from pilot screen (MU89 melanoma cells): 2.4 fold

Compound: Fc1ccc(C(c2ccc(F)cc2)N2CCN(C/C=C/c3ccccc3)CC2)cc1 [Flunarizine]
- Fold increase (IL-2 relative to untreated controls), hits from pilot screen (MU89 melanoma cells): 11.9 fold

Compound: COc1ccc(Cl)cc1C(=O)NCCc1ccc(S(=O)(=O)NC(=O)NC2CCCCC2)cc1 [Glyburide]
- Fold increase (IL-2 relative to untreated controls), hits from pilot screen (MU89 melanoma cells): 2.6 fold

Compound: CCCCCCCCCCCCCCCCCCc1ccc(C(=O)C=CC(=O)O)cc1 [OBAA, 3-(4-octadecyl)benzoylacrylic acid]
- Fold increase (IL-2 relative to untreated controls), hits from pilot screen (MU89 melanoma cells): 5.9 fold

Compound: COc1cccc(-c2cc(=O)c3ccccc3o2)c1N [PD98059]
- Outcome in the primary co-culture IL-2 screen (hit or not) (MU89 melanoma cells): failed to be identified

Compound: N#CC(=C(/N)Sc1ccccc1N)/C(C#N)=C(\N)Sc1ccccc1N [U0126]
- Outcome in the primary co-culture IL-2 screen (hit or not) (MU89 melanoma cells): failed to be identified

Compound: CC[C@@]1(O)C(=O)OCc2c1cc1n(c2=O)Cc2cc3ccccc3nc2-1 [camptothecin]
- Outcome in the primary co-culture IL-2 screen (hit or not) (MU89 melanoma cells): failed to be identified

Compound: COc1cccc2c1C(=O)c1c(O)c3c(c(O)c1C2=O)C[C@@](O)(C(C)=O)C[C@@H]3O[C@H]1C[C@H](N)[C@H](O)[C@H](C)O1 [daunorubicin]
- Outcome in the primary co-culture IL-2 screen (hit or not) (MU89 melanoma cells): interferes with the direct co-culture assay

Compound: COc1cccc2c1C(=O)c1c(O)c3c(c(O)c1C2=O)C[C@@](O)(C(=O)CO)C[C@@H]3O[C@H]1C[C@H](N)[C@H](O)[C@H](C)O1 [doxorubicin]
- Outcome in the primary co-culture IL-2 screen (hit or not) (MU89 melanoma cells): failed to be identified

Compound: COc1cc([C@@H]2c3cc4c(cc3[C@@H](O[C@@H]3O[C@@H]5CO[C@@H](C)O[C@H]5[C@H](O)[C@H]3O)[C@H]3COC(=O)[C@H]23)OCO4)cc(OC)c1O [etoposide]
- Outcome in the primary co-culture IL-2 screen (hit or not) (MU89 melanoma cells): failed to be identified

Compound: IFN-G
- L243 (MHC Class II surface staining) (MU89 melanoma cell line; [4]): 64.3
- W6/32 (MHC Class I surface staining) (MU89 melanoma cell line; [4]): 86.7
- L243 (MHC Class II surface staining) (MU89 melanoma cell line; [5]): 81
- L243 (MHC Class II surface staining) (MU89 melanoma cell line; [6]): 90
- L243 (MHC Class II surface staining) (MU89 melanoma cell line; [7]): 64
- L243 (MHC Class II surface staining) (U2-OS osteosarcoma cells): 142.8
- W6/32 (MHC Class I surface staining) (U2-OS osteosarcoma cells): 397.1
- L243 (MHC Class II surface staining) [1]: 59.1
- W6/32 (MHC Class I surface staining) [1]: 478.5
- L243 (MHC Class II surface staining) [2, 4]: 86.0
- W6/32 (MHC Class I surface staining) [2, 4]: 464.8
- L243 (MHC Class II surface staining) [2, 5]: 97
- L243 (MHC Class II surface staining) [2, 6]: 33
- L243 (MHC Class II surface staining) [2, 7]: 76
- L243 (MHC Class II surface staining) [3]: 53.6
- W6/32 (MHC Class I surface staining) [3]: 232.8
